# Results published in US6586216B2 (Purdue Research Foundation, priority 1997, dated 2003).
# Like-named read-outs stand apart in the source and are kept apart here.
# What was measured:
# Assay type in all cases: biochemical
# [1] = target: T1, glutamine PRPP amidotransferase R307Q mutant enzyme (Bacillus subtilis, UniProt P00497, R318Q)
# T1 construct: Enzymes of the B. subtilis class are synthesized with an NH2 terminal propeptide and an Fe—S center; made in house; host or cells: E. coli strain TX158 (purF) with plasmid pBsF/R307Q
# T1 sequence (P00497 12-476 R318Q): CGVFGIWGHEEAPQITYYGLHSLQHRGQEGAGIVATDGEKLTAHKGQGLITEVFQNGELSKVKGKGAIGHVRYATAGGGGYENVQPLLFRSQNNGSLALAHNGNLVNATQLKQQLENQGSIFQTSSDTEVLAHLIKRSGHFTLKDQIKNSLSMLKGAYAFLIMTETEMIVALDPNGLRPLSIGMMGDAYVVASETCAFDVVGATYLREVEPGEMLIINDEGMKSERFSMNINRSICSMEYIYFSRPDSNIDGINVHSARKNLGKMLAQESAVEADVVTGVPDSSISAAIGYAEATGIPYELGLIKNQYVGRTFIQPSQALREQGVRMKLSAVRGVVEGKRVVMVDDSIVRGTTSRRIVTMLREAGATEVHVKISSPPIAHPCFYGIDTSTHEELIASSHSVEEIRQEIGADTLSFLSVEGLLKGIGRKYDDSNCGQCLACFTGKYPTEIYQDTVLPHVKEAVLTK
# Protocol: (§1) Enzyme activity was assayed by measuring the initial rate of formation of the product glutamate. […] Incubation was at 37° C. for 6 min. […] Reactions were quenched in a boiling water bath for 2 min, and glutamate was determined by the glutamate dehydrogenase method.
# (§2) Inhibition by nucleotides was determined by the standard assay to which varied concentrations of nucleotide were added. Synergistic inhibition was determined by varying the concentration of one nucleotide in the presence of a fixed concentration of a second nucleotide. Relative activity (see FIG. 1) refers to the enzyme activity at a given concentration of the varied nucleotide relative to that in the absence of the varied nucleotide. I0.5 values were calculated from plots of relative activity versus varied nucleotide concentration.
# (§3) These modified forms of amidotransferase were analyzed to determine the impact of the mutations on end-product inhibition and enzymatic activity. Inhibition by nucleotides was determined as described in Example 1.
# [2] = target: T2, glutamine PRPP amidotransferase K305Q mutant enzyme (Bacillus subtilis, UniProt P00497, K316Q)
# T2 construct: Enzymes of the B. subtilis class are synthesized with an NH2 terminal propeptide and an Fe—S center; made in house; host or cells: E. coli strain TX158 (purF) with plasmid pBsF/K305Q
# T2 sequence (P00497 12-476 K316Q): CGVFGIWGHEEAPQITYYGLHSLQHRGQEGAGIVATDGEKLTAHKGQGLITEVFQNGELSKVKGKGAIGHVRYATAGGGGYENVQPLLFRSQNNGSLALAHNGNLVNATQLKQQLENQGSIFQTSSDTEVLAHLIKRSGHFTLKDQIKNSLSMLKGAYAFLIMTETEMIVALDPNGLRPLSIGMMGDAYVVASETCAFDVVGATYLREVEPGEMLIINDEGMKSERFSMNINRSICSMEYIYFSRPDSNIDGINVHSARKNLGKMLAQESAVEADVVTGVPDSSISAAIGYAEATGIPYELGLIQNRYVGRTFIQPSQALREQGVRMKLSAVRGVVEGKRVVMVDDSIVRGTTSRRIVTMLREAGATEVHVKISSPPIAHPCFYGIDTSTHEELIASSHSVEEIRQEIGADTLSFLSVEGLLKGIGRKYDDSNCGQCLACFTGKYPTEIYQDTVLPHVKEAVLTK
# Protocol: as §1, §2, §3
# [3] = target: T3, glutamine PRPP amidotransferase S283A mutant enzyme (Bacillus subtilis, UniProt P00497, S294A); conditions: for higher concentration required for 50% inhibition compared to wild type: ADP-GMP mixture
# T3 construct: Enzymes of the B. subtilis class are synthesized with an NH2 terminal propeptide and an Fe—S center; made in house; host or cells: E. coli strain TX158 (purF) with plasmid pBsF/S283A
# T3 sequence (P00497 12-476 S294A): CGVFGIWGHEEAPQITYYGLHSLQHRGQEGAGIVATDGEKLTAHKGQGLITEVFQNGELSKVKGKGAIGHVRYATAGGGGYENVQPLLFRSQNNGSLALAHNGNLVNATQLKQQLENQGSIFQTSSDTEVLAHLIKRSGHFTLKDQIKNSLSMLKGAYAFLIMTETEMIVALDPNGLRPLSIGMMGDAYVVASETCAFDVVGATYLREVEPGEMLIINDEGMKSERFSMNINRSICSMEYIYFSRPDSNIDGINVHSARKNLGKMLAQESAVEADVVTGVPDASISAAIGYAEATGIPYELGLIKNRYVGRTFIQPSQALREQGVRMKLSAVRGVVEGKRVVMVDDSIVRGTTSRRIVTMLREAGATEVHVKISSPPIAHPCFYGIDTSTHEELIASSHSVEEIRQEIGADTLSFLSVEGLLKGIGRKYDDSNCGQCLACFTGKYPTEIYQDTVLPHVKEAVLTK
# Protocol: as §1, §2, §3
# [4] = target: T4, Bacillus subtilis glutamine PRPP amidotransferase variant R307Q (Bacillus subtilis, UniProt P00497, R318Q); experiment: Inhibition of enzyme activity (glutamate formation) by nucleotides, mutant R307Q
# T4 construct: Enzymes of the B. subtilis class are synthesized with an NH2 terminal propeptide; made in house; host or cells: E. coli strain TX158 (purF), plasmid pBsF/R307Q
# T4 sequence (P00497 12-476 R318Q): as the sequence (P00497 12-476 R318Q) above
# Excerpt: Plasmid pGZ1 was used for production of the wild type enzyme. Plasmid pGZ1 contains a 1.6 kb EcoRI-HindIII purF^+ fragment (Makaroff, C. A., Zalkin, H., Switzer, R. L., and Vollmer, S. J. (1983) J. Biol. Chem. 258, pp. 10586-10593) inserted into the corresponding sites of pUC18. For construction of mutants, the EcoRI-HindIII purF^+ DNA was transferred to pUC118 to yield pBsF. Mutations were constructed by the method of Kunkel et al. (Kunkel, T. A., Roberts, J. D., and Zakour, R. A. (1987) Methods Enzymol. 154, pp. 367-382) using pBsF phagemid DNA. The resulting plasmids were named pBsF/S283A, pBsF/K305Q, pBsF/R307Q, and pBsF/S347A.
# Enzyme activity was assayed by measuring the initial rate of formation of the product glutamate. […] Incubation was at 37° C. for 6 min. The reaction was linear with time for at least 20 min under these conditions of assay. Reactions were quenched in a boiling water bath for 2 min, and glutamate was determined by the glutamate dehydrogenase method. The control reaction mixture contained all the components except PRPP.
# as §2
# as §3, with “Site directed mutagenesis was utilized to modify amino acids comprising the A site and C site domains of the glutamine PRPP amidotransferase. These” for “These”
# [5] = I0.5, no fixed nucleotide, 2.5 mM PRPP, pH 8.0, 37° C.
smiles,measurement,setting,value
Nc1ncnc2c1ncn2[C@@H]1O[C@H](COP(=O)(O)OP(=O)(O)O)[C@@H](O)[C@H]1O [ADP],syn.,[1]; fixed GMP 0.50 mM,12.0
same,syn.,[1]; fixed GMP 5.0 mM,156.0
same,syn.,[2]; fixed GMP 0.50 mM,2.6
same,syn.,[2]; fixed GMP 5.0 mM,97.0
same,higher concentration required for 50% inhibition compared to wild type,[3],30 fold
same,syn.,[3]; fixed GMP 0.50 mM,5.0
same,IC50,"[4]; I0.5, fixed GMP 0.50 mM",2400 µM
same,IC50,"[4]; I0.5, fixed GMP 5.0 mM",180 µM
same,IC50,[4]; [5],28000 µM
same,syn. (decreased I0.5 due to a second nucleotide),[4]; fixed GMP 0.50 mM,12.0 fold
same,syn. (decreased I0.5 due to a second nucleotide),[4]; fixed GMP 5.0 mM,156.0 fold
Nc1ncnc2c1ncn2[C@@H]1O[C@H](COP(=O)(O)O)[C@@H](O)[C@H]1O [AMP],IC50,[4]; [5],2600 µM
Nc1nc2c(ncn2[C@@H]2O[C@H](COP(=O)(O)O)[C@@H](O)[C@H]2O)c(=O)[nH]1 [GMP],syn.,[1]; fixed ADP 0.5 mM,15.0
same,syn.,[1]; fixed ADP 2.5 mM,66.0
same,syn.,[2]; fixed ADP 0.5 mM,8.3
same,syn.,[2]; fixed ADP 2.5 mM,38.0
same,higher concentration required for 50% inhibition compared to wild type,[3],13 fold
same,syn.,[3]; fixed ADP 0.5 mM,3.3
same,syn.,[3]; fixed ADP 2.5 mM,3.9
same,I0.5 increase relative to wild type,[3]; single nucleotide,similar
same,IC50,"[4]; I0.5, fixed ADP 0.5 mM",3300 µM
same,IC50,"[4]; I0.5, fixed ADP 2.5 mM",760 µM
same,IC50,[4]; [5],50000 µM
same,syn. (decreased I0.5 due to a second nucleotide),[4]; fixed ADP 0.5 mM,15.0 fold
same,syn. (decreased I0.5 due to a second nucleotide),[4]; fixed ADP 2.5 mM,66.0 fold
